According to patent US7572809B2, “Isoquinoline aminopyrazole derivatives” (Hoffmann-La Roche Inc., priority 2005, dated 2009):

Tests used:
Aurora A kinase = target: T1, Aurora A kinase (Homo sapiens, UniProt O14965); assay: IC50 determination for inhibitors of Aurora A kinase (ELISA, GST-Histone H3 substrate); format: biochemical; conditions: mutant Aurora A kinase, 30 μM ATP, 40 minutes; read-out: IC50 Aurora A kinase inhibition
T1 sequence (O14965 1-403): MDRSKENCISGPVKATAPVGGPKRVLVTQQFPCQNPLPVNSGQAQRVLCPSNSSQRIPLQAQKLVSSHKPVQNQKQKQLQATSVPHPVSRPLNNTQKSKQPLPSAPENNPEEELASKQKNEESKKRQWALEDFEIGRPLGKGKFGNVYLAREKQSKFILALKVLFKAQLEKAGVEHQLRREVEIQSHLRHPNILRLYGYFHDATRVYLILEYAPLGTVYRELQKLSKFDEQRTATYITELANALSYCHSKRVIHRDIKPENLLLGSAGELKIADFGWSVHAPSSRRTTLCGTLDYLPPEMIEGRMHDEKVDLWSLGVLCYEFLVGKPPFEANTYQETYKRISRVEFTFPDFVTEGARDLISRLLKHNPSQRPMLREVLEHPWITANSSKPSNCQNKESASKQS
Method: IC50 Determination for Inhibitors of Aurora A Kinase
Aurora A is a Serine Threonine Kinase Involved in Spindle Assembly and Chromosome Segregation.
The assay is a typically ELISA-type assay where substrate (GST-Histone H3) is coupled to the assay-plate and is phosphorylated by the kinase. Phosphorylation is detected by a mouse anti-Phosphopeptid mAb and an HRP-labeled anti-mouse pAb. The assay is validated for IC50-determination.
Kinase activities were measured by Enzyme-Linked Immunosorbent Assay (ELISA): Maxisorp 384-well plates (Nunc) were coated with recombinant fusion protein comprising residues 1-15 of HistoneH3 fused to the N-terminus of Glutathione-S-Transferase. Plates were then blocked with a solution of 1 mg/mL I-block (Tropix cat# T2015—highly purified form of casein) in phosphate-buffered saline. Kinase reactions were carried out in the wells of the ELISA plate by combining an appropriate amount of mutant Aurora A kinase with test compound and 30 μM ATP. The reaction buffer was […] Kinase Buffer (Cell Signaling cat # 9802) supplemented with 1 μg/mL I-block. Reactions were stopped after 40 minutes by addition of 25 mM EDTA (ethylenediaminetetraacetic acid). After washing, substrate phosphorylation was detected by addition of anti-phospho-Histone H3 (Ser 10) 6G3 mAb (Cell Signaling cat #9706) and sheep anti-mouse pAb-HRP (Amersham cat# NA931V), followed by colorimetric development with TMB (3,3′,5,5′-tetramethylbenzidine from Kirkegaard & Perry Laboratories). After readout of the absorbance, IC50 values were calculated using a non-linear curve fit (XLfit® software (ID Business Solution Ltd., Guilford, Surrey, UK)).

HCT 116 cells = assay: Viability assay in HCT 116 cells (CellTiter-Glo); format: cell-based; conditions: 120 h; HCT 116 human colon carcinoma cells, 5 days incubation
Method: Viability Assay in HCT 116 Cells
A viability assay was performed using the CellTiter-Glo® Luminescent Cell Viability Assay (see Promega Corporation's Technical Bulletin No. 288, pp. 1-11 [revised February, 2004] which is hereby incorporated by reference in its entirety). This assay is a homogeneous method of determining the number of viable cells in culture based on quantitation of the ATP present, an indicator of metabolically active cells. The assay is designed for use with multiwell formats, making it ideal for automated high-throughput screening (HTS), cell proliferation and cytotoxicity assays. The homogeneous assay procedure involves adding a single reagent (containing luciferase, luciferan substrate, and buffer) directly to cells cultured in serum-supplemented medium. Cell washing, removal of medium and multiple pipetting steps are not required. The system detects as few as 15 cells/well in a 384-well format in 10 minutes after adding reagent and mixing.
The homogeneous “add-mix-measure” format results in cell lysis and generation of a luminescent signal proportional to the amount of ATP present. The amount of ATP is directly proportional to the number of cells present in culture. The above-referenced assay generates a “glow-type” luminescent signal, produced by the luciferase reaction, which has a half-life generally greater than five hours, depending on cell type and medium used. The extended half-life eliminates the need to use reagent injectors and provides flexibility for continuous or batch mode processing of multiple plates. The unique homogeneous format avoids errors that may be introduced by other ATP measurement methods that require multiple steps.
HCT 116 cells (human colon carcinoma, ATCC-No. CCl-247) were cultivated in RPMI 1640 medium with GlutaMAX™ I (cell culture media that contains L-Alanyl-L-Glutamine [a stabilized form/source of L-Glutamine] from Invitrogen, Cat-No. 61870-010), 5% Fetal Calf Serum (FCS, Sigma Cat-No. F4135 (FBS)); 100 Units/ml penicillin/100 μg/ml streptomycin (=Pen/Strep from Invitrogen Cat. No. 15140). For the assay the cells were seeded in 384 well plates, 1000 cells per well, in the same medium. The next day the test compounds were added in various concentrations ranging from 30 μM to 0.0015 μM (10 concentrations, 1:3 diluted). After 5 days the viability assay was performed according to the instructions of the manufacturer. In brief: the cell-plate was equilibrated to room temperature for approximately 30 minutes and then the CellTiter-Glo™ reagent (which contains luciferase, luciferan substrate, and buffer) was added. The contents were carefully mixed for 15 minutes to induce cell lysis. After 45 minutes the luminescent signal was measured in Victor 2, (scanning multiwell spectrophotometer, Wallac).
1st. Day: • Medium: RPMI 1640 with GlutaMAX™ I (Invitrogen, Cat-No. 61870), 5% FCS (Sigma Cat.-No. F4135), Pen/Strep (Invitrogen, Cat No. 15140). • HCT116 (ATCC-No. CCl-247): 1000 cells in 60 μl per well of 384 well plate (Greiner 781098, μClear-plate white) • After seeding incubate plates 24 h at 37° C., 5% CO2 2nd. Day: Induction (Treatment with Compounds, 10 Concentrations):
In order to achieve a final concentration of 30 μM as highest concentration 3.5 μl of 10 mM compound stock solution were added directly to 163 μl media. Then step e) of the dilution procedure described below, was followed.
In order to achieve the second highest to the lowest concentrations, a serial dilution with dilution steps of 1:3 was followed according to the procedure (a-e) as described here below: a) for the second highest concentration add 10 μl of 10 mM stock solution of compound to 20 μl dimethylsulfoxide (DMSO) b) dilute 8×1:3 (always 10 μl to 20 μl DMSO) in this DMSO dilution row (results in 9 wells with concentrations from 3333.3 μM to 0.51 μM) c) dilute each concentration 1:47.6 (3.5 μl compound dilution to 163 μl media) […]

Row | IC50 (Aurora A kinase) | IC50 (HCT 116 cells) | SMILES
1 | 66 nM | – | Cc1ccc(Oc2nc(Nc3cc(C)[nH]n3)cc3ccccc23)cc1 [Example 14, (5-Methyl-1H-pyrazol-3-yl)-(1-p-tolyloxy-isoquinolin-3-yl)-amine]
2 | 1660 nM | – | Cc1cc(Nc2cc3ccccc3c(Oc3ccccc3Cl)n2)n[nH]1 [Example 23, [1-(2-Chloro-phenoxy)-isoquinolin-3-yl]-(5-methyl-1H-pyrazol-3-yl)-amine]
3 | 39 nM | – | CC(=O)Nc1ccc(Oc2nc(Nc3cc(C)[nH]n3)cc3ccccc23)cc1 [Example 59, N-{4-[-3-(5-Methyl-1H-pyrazol-3-ylamino)-isoquinolin-1-yloxy]-phenyl}-acetamide]
4 | 822 nM | – | CCOCCOCCOc1nc(Nc2cc[nH]n2)cc2ccccc12 [Example 110, {1-[2-(2-Ethoxy-ethoxy)-ethoxy]-isoquinolin-3-yl}-(1H-pyrazol-3-yl)-amine]
5 | 21 nM | 666 nM | COc1cc2cc(Nc3cc(C)[nH]n3)nc(OC3CCCC3)c2cc1OC [Example 117, (1-Cyclopentyloxy-6,7-dimethoxy-isoquinolin-3-yl)-(5-methyl-1H-pyrazol-3-yl)-amine]
6 | 653 nM | – | COc1ccc2c(-c3cnn(C)c3)nc(Nc3cc[nH]n3)cc2c1 [Example 135, [6-Methoxy-1-(1-methyl-1H-pyrazol-4-yl)-isoquinolin-3-yl]-(1H-pyrazol-3-yl)-amine]
7 | 330 nM | – | Cc1cc(Nc2cc3ccccc3c(-c3ccncc3)n2)n[nH]1 [Example 162, (5-Methyl-1H-pyrazol-3-yl)-(1-pyridin-4-yl-isoquinolin-3-yl)-amine]
8 | 390 nM | 4010 nM | COc1ccc2c(-c3ccc4ccccc4c3)nc(Nc3cc(C)[nH]n3)cc2c1 [Example 183, (5-Methyl-1H-pyrazol-3-yl)-(1-naphthalen-2-yl-6-methoxy-isoquinolin-3-yl)-amine]
9 | 47 nM | – | COc1cccc2c(-c3cccc(C#N)c3)nc(Nc3cc(C)[nH]n3)cc12 [Example 201, 3-[3-(5-Methyl-1H-pyrazol-3-ylamino)-5-methoxy-isoquinolin-1-yl]-benzonitrile]
10 | 946 nM | – | c1ccc2c(-c3ccsc3)nc(Nc3cc[nH]n3)cc2c1 [Example 241, (1H-Pyrazol-3-yl)-(1-thiophen-3-yl-isoquinolin-3-yl)-amine]
11 | 3440 nM | – | c1ccc2c(-c3ccncc3)nc(Nc3cc[nH]n3)cc2c1 [Example 248, (1H-Pyrazol-3-yl)-(1-pyridin-4-yl-isoquinolin-3-yl)-amine]
12 | 2970 nM | – | COc1ccc2c(-c3ccc4ccccc4c3)nc(Nc3cc[nH]n3)cc2c1 [Example 265, (6-Methoxy-1-naphthalen-2-yl-isoquinolin-3-yl)-(1H-pyrazol-3-yl)-amine]
13 | 43 nM | 995 nM | COc1ccc2c(Nc3ccc(Br)cc3)nc(Nc3cc(C)[nH]n3)cc2c1 [Example 275, N^1-(4-Bromo-phenyl)-6-methoxy-N^3-(5-methyl-1H-pyrazol-3-yl)-isoquinoline-1,3-diamine]
14 | 259 nM | – | COc1ccc(Nc2nc(Nc3cc[nH]n3)cc3ccccc23)cc1OC [Example 284, N^1-(3,4-Dimethoxy-phenyl)-N^3-(1H-pyrazol-3-yl)-isoquinoline-1,3-diamine]
15 | 241 nM | – | Cc1cc(Nc2cc3ccccc3c(Nc3cccnc3)n2)n[nH]1 [Example 292, N^3-(5-methyl-1H-pyrazol-3-yl)-N^1-pyridin-3-yl-isoquinoline-1,3-diamine]
16 | 297 nM | – | Cc1cc(Nc2cc3cc(OCCN4CCOCC4)ccc3c(-c3ccccc3)n2)n[nH]1 [Example 299, (5-Methyl-1H-pyrazol-3-yl)-[6-(2-morpholin-4-yl-ethoxy)-1-phenyl-isoquinolin-3-yl]-amine]
17 | 497 nM | – | Cc1cc(Nc2cc3ccccc3c(Sc3ccccc3)n2)n[nH]1 [Example 305, (5-Methyl-1H-pyrazol-3-yl)-(1-phenylsulfanyl-isoquinolin-3-yl)-amine]
18 | 210 nM | – | COc1ccc2c(Sc3cccc(F)c3)nc(Nc3cc(C)[nH]n3)cc2c1 [Example 311, [1-(3-Fluoro-phenylsulfanyl)-6-methoxy-isoquinolin-3-yl]-(5-methyl-1H-pyrazol-3-yl)-amine]

Row | SMILES | IC50 (Aurora A kinase) | IC50 (HCT 116 cells)
19 | CC(C)COc1nc(Nc2cc[nH]n2)cc2ccccc12 [Example 99, (1-Isobutoxy-isoquinolin-3-yl)-(1H-pyrazol-3-yl)-amine] | 1460 nM | –
